# Measured values from patent US20250235476A1, “METHODS AND COMPOSITIONS THAT ARE ALTERNATIVES TO ANTIBIOTICS” (priority 2022, published 2025).
# Test system: non-specific upper respiratory infection (URI)
# Assay: Randomized double-blind placebo-controlled clinical trial: Days To Recovery (DTR)
# Format: in vivo, human
# Details: added to EZC during acute phase of illness
# Description: Methods: A total of 360 patients across the United States were enrolled and randomized in a double-blind manner across two intervention groups, EZC, EZCD, and one placebo group. The study was conducted utilizing a smartphone-based app to screen, enroll and capture study data of the participants. Once a study participant reported the first symptoms of a URI, they were advised to take the intervention as directed and complete the daily symptom survey score until their symptoms resolved.
# A total of 360 individuals, male or female over 18 years old, were enrolled by a third-party clinical research organization (CRO), to participate in the study. […] The placebo was composed of rice concentrate.
# The study was conducted with the CRO's technology platform utilized to screen, enroll and capture study data of the participants.
# Once a study participant reported the first symptoms of a URI, they were advised to take the intervention (i.e., placebo, EZC, or EZCD) taper dosed over a five-day period.
# DTR is a metric that measures the total number of days in which a patient is experiencing symptoms of an illness while taking the intervention or placebo. DTR also directly lends itself for use in a log-rank analysis, which is used to compute statistical significance.
# The primary limitation of DTR arises from the heterogeneous nature of the illness and the patient's unique recovery. […]
substance,measurement,value
vitamin D,effect of addition of vitamin D on illness duration or symptom severity,neither benefited nor harmed
